Assay results reported in patent US4175081A, “5-Substituted thiadiazole ureas” (priority 1977, dated 1979).

What was measured:
Turnip (TP) [1] = test: Pre-emergence herbicide test; format: in vivo, Brassica sp.; details: Brassica rapa, pre-emergence, 336 h, two weeks after treatment
Summary of the method: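 Turnip (Brassica sp.) seeds were surface sown in 3' plastic pots of potting soil, covered with a thin layer of screened soil, and sub-irrigated in greenhouse trays. Pots were seeded one day ahead of treatment, sprayed pre-emergence under a hood with a fixed nozzle and moving belt, then kept in the greenhouse.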

Cotton (CT) [2] = test: Post-emergence herbicide test; format: in vivo, Gossypium hirsutum var. DPL smooth leaf; details: Gossypium hirsutum, post-emergence, 336 h, two weeks after treatment
Summary of the method: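 Cotton (Gossypium hirsutum var. DPL smooth leaf) was grown in 3' plastic pots of potting soil, four seeds per pot, planted at a depth equal to the seed diameter and watered by sub-irrigation. At the stage of expanded cotyledons with the first true leaf 1' long, plants were sprayed post-emergence in a hood with a fixed nozzle over a moving belt. Percent control was rated visually two weeks later.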

Barnyard grass (BG) = test: Pre-emergence herbicide test; format: in vivo; details: Echinochloa crus-galli, 336 h, two weeks after treatment
Summary of the method: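 Barnyard grass surface-seeded in potting soil and sprayed pre-emergence one day after seeding, at 8 or 4 lb compound/acre in 38 gal/acre spray volume. Pots kept in greenhouse with sub-irrigation only; injury or control rated visually two weeks after treatment.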

Cotton (CT) [3] = test: Pre-emergence herbicide test; format: in vivo, Gossypium hirsutum var. DPL smooth leaf; details: Gossypium hirsutum, 336 h, two weeks after treatment
Summary of the method: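 Crop and weed species seeded one day before treatment, then sprayed pre-emergence at 8 lbs actual compound per acre (also 4 lbs/acre formulations) in 38 gallons per acre. Pots kept in greenhouse with sub-irrigation only; injury or control visually rated two weeks after treatment.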

Bean (BN) [4] = test: Post-emergence herbicide test; format: in vivo, Phaseolus vulgaris var. Black Valentine; details: Phaseolus vulgaris, post-emergence, 336 h, two weeks after treatment
Summary of the method: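 Snapbean (Phaseolus vulgaris var. Black Valentine) was tested post-emergence. Four seeds were sown in 3' plastic pots of potting soil at a depth equal to the seed diameter, then sub-irrigated in greenhouse trays. Planting dates were staggered so plants were sprayed once primary leaves had expanded, with the growing point at the primary leaf nodes.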

Amaranth pigweed (PW) = test: Pre-emergence herbicide test; format: in vivo, Amaranthus retroflexus; details: 336 h, two weeks after treatment
Protocol: All crop and weed species were planted individually in 3' plastic pots containing potting soil. Four seeds each of corn, cotton, and snapbeans were seeded to a depth equal to the diameter of the seed. All other species were surface seeded and sprinkled with screened soil in an amount sufficient to cover the seed. Immediately after planting, all pots were watered by sub-irrigation in greenhouse trays. Pots for the pre-emergence phase were seeded one day before treatment.
Compounds were tested at rates of application equivalent to 8 lbs. of actual compound per acre in a spray volume of 38 gallons per acre. Spray hood constants required to deliver the above volume are as follows:
Formulations for spray applications were prepared in 50 ml volumes with the following three components:
Formulations for the 4 lbs/acre rate were prepared by adjusting the amount of active ingredient accordingly.
Spray applications were made in a hood containing a removable belt and fixed spray nozzle. For passage through the spray hood, one pot of each specie (pre-emergence phase) was placed on the rear half of the flat. Treatments were removed to the greenhouse after spraying. Watering during the observation period was done only by sub-irrigation.
Two weeks after treatment, pre- and post-emergence injury or control was visually rated, and the results were as shown in the following tables. Pre-emergence data are provided in TABLE III and post-emergence data are provided in TABLE IV, for compounds having the formula illustrated in TABLE I. Correspondingly, pre-emergence and post-emergence data, respectively, are set forth in TABLES V AND VI, for compounds having the formula illustrated in TABLE II.

Crabgrass (CG) [5] = test: Pre-emergence herbicide test; format: in vivo, Digitaria sanquinalis; details: Digitaria sanguinalis, pre-emergence, 336 h, two weeks after treatment
Summary of the method: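 Crabgrass (Digitaria sanquinalis) was surface seeded in 3' plastic pots of potting soil, covered with screened soil, and watered by sub-irrigation in greenhouse trays. Pots were seeded one day before spraying in a hood with a moving belt and fixed nozzle. Plants stayed in the greenhouse on sub-irrigation, and pre-emergence control was rated visually two weeks after treatment.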

Bean (BN) [6] = test: Pre-emergence herbicide test; format: in vivo, Phaseolus vulgaris var. Black Valentine; details: Phaseolus vulgaris, 336 h, two weeks after treatment
Summary of the method: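 Black Valentine bean was seeded in potting soil one day before spraying. Compound was applied pre-emergence at 8 lbs/acre (also 4 lbs/acre) in 38 gallons per acre. Plants were sub-irrigated and injury or control was rated visually after two weeks.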

Crabgrass (CG) [7] = test: Post-emergence herbicide test; format: in vivo, Digitaria sanquinalis; details: Digitaria sanguinalis, post-emergence, 336 h, two weeks after treatment
Summary of the method: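 Crabgrass (Digitaria sanquinalis) was surface seeded individually in 3' plastic pots of potting soil, covered with screened soil, and watered by sub-irrigation in greenhouse trays. Planting was staggered so seedlings reached the target stage together. Post-emergence sprays were applied in a hood with a removable belt and fixed nozzle, and control was visually rated two weeks after treatment.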

Corn (CN) = test: Pre-emergence herbicide test; format: in vivo; details: Zea mays, 336 h, two weeks after treatment
Summary of the method: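 Four corn seeds per pot, sown at seed-diameter depth one day before spraying, got soil surface treatment at 8 lbs/acre (4 lbs/acre formulations also prepared) in 38 gallons/acre. Pots were greenhouse-held with sub-irrigation only. Injury or control was scored visually two weeks after treatment.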

Johnson grass (JG) = test: Pre-emergence herbicide test; format: in vivo, Sorgum helepense; details: Sorghum halepense, 336 h, two weeks after treatment
Summary of the method: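 Pots seeded one day before spraying; compound applied pre-emergence at 8 lbs/acre (or 4 lbs/acre) in 38 gallons/acre spray volume. Sub-irrigated in greenhouse; injury/control rated visually two weeks after treatment.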

Turnip (TP) [8] = test: Post-emergence herbicide test; format: in vivo, Brassica sp.; details: Brassica rapa, post-emergence, 336 h, two weeks after treatment
Summary of the method: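 A greenhouse post-emergence herbicide test on turnip. Seeds were sown on the surface of potting soil in 3' plastic pots, lightly covered with screened soil and watered from below. Planting was timed so seedlings had 1 or 2 true leaves above the cotyledons at spraying, done in a hood with a fixed nozzle. Control or injury was scored by eye after two weeks.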

## CCCCSc1nnc(N(C)C(=O)NC)s1 [Example 90]
Turnip (TP) [1]; 0.5 lb/acre
  pest or weed control at 560.425 g/ha: 10%
Turnip (TP) [1]; 1 lb/acre
  pest or weed control at 1120.85 g/ha: 10%
Turnip (TP) [1]; 2 lb/acre
  pest or weed control at 2241.7 g/ha: 60%
Turnip (TP) [1]; 4 lb/acre
  pest or weed control at 4483.4 g/ha: 80%
Cotton (CT) [2]; 0.5 lb/acre
  pest or weed control at 560.425 g/ha: 100%
Cotton (CT) [2]; 1 lb/acre
  pest or weed control at 1120.85 g/ha: 100%
Cotton (CT) [2]; 2 lb/acre
  pest or weed control at 2241.7 g/ha: 100%
Cotton (CT) [2]; 4 lb/acre
  pest or weed control at 4483.4 g/ha: 100%
Barnyard grass (BG); 0.5 lb/acre
  pest or weed control at 560.425 g/ha: 10%
Barnyard grass (BG); 1 lb/acre
  pest or weed control at 1120.85 g/ha: 10%
Barnyard grass (BG); 2 lb/acre
  pest or weed control at 2241.7 g/ha: 90%
Barnyard grass (BG); 4 lb/acre
  pest or weed control at 4483.4 g/ha: 90%
Cotton (CT) [3]; 0.5 lb/acre
  pest or weed control at 560.425 g/ha: 10%
Cotton (CT) [3]; 1 lb/acre
  pest or weed control at 1120.85 g/ha: 10%
Cotton (CT) [3]; 2 lb/acre
  pest or weed control at 2241.7 g/ha: 30%
Cotton (CT) [3]; 4 lb/acre
  pest or weed control at 4483.4 g/ha: 50%
Bean (BN) [4]; 0.5 lb/acre
  pest or weed control at 560.425 g/ha: 90%
Bean (BN) [4]; 1 lb/acre
  pest or weed control at 1120.85 g/ha: 100%
Bean (BN) [4]; 2 lb/acre
  pest or weed control at 2241.7 g/ha: 100%
Bean (BN) [4]; 4 lb/acre
  pest or weed control at 4483.4 g/ha: 100%
Amaranth pigweed (PW); 0.5 lb/acre
  pest or weed control at 560.425 g/ha: 10%
Amaranth pigweed (PW); 1 lb/acre
  pest or weed control at 1120.85 g/ha: 30%
Amaranth pigweed (PW); 2 lb/acre
  pest or weed control at 2241.7 g/ha: 100%
Amaranth pigweed (PW); 4 lb/acre
  pest or weed control at 4483.4 g/ha: 100%
Crabgrass (CG) [5]; 0.5 lb/acre
  pest or weed control at 560.425 g/ha: 10%
Crabgrass (CG) [5]; 1 lb/acre
  pest or weed control at 1120.85 g/ha: 10%
Crabgrass (CG) [5]; 2 lb/acre
  pest or weed control at 2241.7 g/ha: 90%
Crabgrass (CG) [5]; 4 lb/acre
  pest or weed control at 4483.4 g/ha: 90%
Bean (BN) [6]; 0.5 lb/acre
  pest or weed control at 560.425 g/ha: 10%
Bean (BN) [6]; 1 lb/acre
  pest or weed control at 1120.85 g/ha: 10%
Bean (BN) [6]; 2 lb/acre
  pest or weed control at 2241.7 g/ha: 40%
Bean (BN) [6]; 4 lb/acre
  pest or weed control at 4483.4 g/ha: 70%
Crabgrass (CG) [7]; 0.5 lb/acre
  pest or weed control at 560.425 g/ha: 30%
Crabgrass (CG) [7]; 1 lb/acre
  pest or weed control at 1120.85 g/ha: 60%
Crabgrass (CG) [7]; 2 lb/acre
  pest or weed control: 90%
Crabgrass (CG) [7]; 4 lb/acre
  pest or weed control at 4483.4 g/ha: 90%
Corn (CN); 0.5 lb/acre
  pest or weed control at 560.425 g/ha: 10%
Corn (CN); 1 lb/acre
  pest or weed control at 1120.85 g/ha: 10%
Corn (CN); 2 lb/acre
  pest or weed control at 2241.7 g/ha: 10%
Corn (CN); 4 lb/acre
  pest or weed control at 4483.4 g/ha: 30%
Johnson grass (JG); 0.5 lb/acre
  pest or weed control at 560.425 g/ha: 10%
Johnson grass (JG); 1 lb/acre
  pest or weed control at 1120.85 g/ha: 10%
Johnson grass (JG); 2 lb/acre
  pest or weed control at 2241.7 g/ha: 50%
Johnson grass (JG); 4 lb/acre
  pest or weed control at 4483.4 g/ha: 50%
Turnip (TP) [8]; 0.5 lb/acre
  pest or weed control at 560.425 g/ha: 90%
Turnip (TP) [8]; 1 lb/acre
  pest or weed control at 1120.85 g/ha: 100%
Turnip (TP) [8]; 2 lb/acre
  pest or weed control at 2241.7 g/ha: 100%
Turnip (TP) [8]; 4 lb/acre
  pest or weed control at 4483.4 g/ha: 100%
